Laboratory results from patent US10183943B2, “Heterocyclic compounds and their use in preventing or treating bacterial infections” (MUTABILIS, priority 2015, dated 2019).
pIC50: −log10 of the molar value. Where a name gives a salt, the structure may show the parent alone.

Columns and labels:
[1] = biological target: T1, OXA-1 (Escherichia coli, UniProt P13661); test: β-lactamase inhibitory activity, determination of IC50 (nitrocefin hydrolysis); format: biochemical; conditions: class (D); nitrocefin 200 μM, 30 min pre-incubation; read-out: IC50 β-lactamase OXA-1
T1 construct: made in house; host or cells: E. coli
T1 sequence (P13661 26-276): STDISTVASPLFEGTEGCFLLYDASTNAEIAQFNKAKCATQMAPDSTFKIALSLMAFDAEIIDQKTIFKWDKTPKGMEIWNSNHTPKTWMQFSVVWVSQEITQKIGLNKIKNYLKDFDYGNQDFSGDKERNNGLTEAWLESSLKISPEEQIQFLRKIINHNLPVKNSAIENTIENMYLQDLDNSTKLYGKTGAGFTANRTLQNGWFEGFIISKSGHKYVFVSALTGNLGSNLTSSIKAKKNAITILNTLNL

[2] = tested on: P. aeruginosa CIP107051 (TEM-24); test: MIC of compounds alone, broth microdilution; format: cell-based; conditions: Pseudomonas aeruginosa; strain CIP107051 (P. aeruginosa); read-out: MIC compounds of the invention alone
Method in brief: (§1)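 Compounds were dissolved in DMSO and spotted onto plates. Log-phase cells were then added at 5×10^5 cfu/mL in cation-adjusted Mueller-Hinton broth, incubated 16-20 h at 35° C, and the MIC was scored visually as the lowest growth-inhibiting concentration.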

[3] = tested on: E. cloacae UFR51 (SHV-12, IMP-8); test: MIC of compounds alone, broth microdilution; format: cell-based; conditions: Enterobacter cloacae; strain UFR51 (E. cloacae); read-out: MIC compounds of the invention alone
Method in brief: as §1

[4] = tested on: E. coli UFR41 (TEM-1, CTX-M-15, CMY-2, OXA-1, NDM-4); test: MIC of compounds alone, broth microdilution; format: cell-based; conditions: Escherichia coli, read-out: MIC compounds of the invention alone
Method in brief: as §1

[5] = tested on: E. coli UFR74 (SHV-1, DHA-1); test: MIC of compounds alone, broth microdilution; format: cell-based; conditions: Escherichia coli; strain UFR74 (E. coli); read-out: MIC compounds of the invention alone
Method in brief: as §1

[6] = tested on: K. pneumoniae 200047 (TEM-1, SHV-32, CTX-M-15, OXA-1); test: MIC of compounds alone, broth microdilution; format: cell-based; conditions: Klebsiella pneumoniae, read-out: MIC compounds of the invention alone
Method in brief: as §1

[7] = tested on: K. pneumoniae 6299 (TEM-1, SHV-11, OXA-163); test: MIC of compounds alone, broth microdilution; format: cell-based; conditions: Klebsiella pneumoniae; strain 6299 (K. pneumoniae); read-out: MIC compounds of the invention alone
Method in brief: as §1

[8] = tested on: K. pneumoniae UFR77 (CMY-2); test: MIC of compounds alone, broth microdilution; format: cell-based; conditions: Klebsiella pneumoniae; strain UFR77 (K. pneumoniae); read-out: MIC compounds of the invention alone
Method in brief: as §1

[9] = tested on: E. coli UFR18 (CTX-M-15, OXA-204); test: MIC of compounds alone, broth microdilution; format: cell-based; conditions: Escherichia coli; strain UFR18 (E. coli); read-out: MIC compounds of the invention alone
Method in brief: as §1

[10] = tested on: K. oxytoca UFR21 (TEM-1, CTX-M-15, OXA-48); test: MIC of compounds alone, broth microdilution; format: cell-based; conditions: Klebsiella oxytoca, read-out: MIC compounds of the invention alone
Method in brief: as §1

[11] = tested on: E. coli RGN238 (OXA-1); test: MIC of compounds alone, broth microdilution; format: cell-based; conditions: Escherichia coli; strain RGN238 (E. coli); read-out: MIC compounds of the invention alone
Method in brief: as §1

[12] = tested on: K. pneumoniae UFR39 (CTX-M-15, NDM-1); test: MIC of compounds alone, broth microdilution; format: cell-based; conditions: Klebsiella pneumoniae; strain UFR39 (K. pneumoniae); read-out: MIC compounds of the invention alone
Method in brief: as §1

[13] = tested on: E. cloacae P99 (AmpC); test: MIC of compounds alone, broth microdilution; format: cell-based; conditions: Enterobacter cloacae; strain P99 (E. cloacae); read-out: MIC compounds of the invention alone
Method in brief: as §1

[14] = tested on: K. pneumoniae BAA-1898 (TEM-1, SHV-11, SHV-12, KPC-2); test: MIC of compounds alone, broth microdilution; format: cell-based; conditions: Klebsiella pneumoniae, BAA1898; strain BAA-1898 (K. pneumoniae); read-out: MIC compounds of the invention alone
Method in brief: as §1

[15] = tested on: K. pneumoniae 160143 (TEM-1, SHV-1, CTX-M-15, KPC-2, OXA-1); test: MIC of compounds alone, broth microdilution; format: cell-based; conditions: Klebsiella pneumoniae, read-out: MIC compounds of the invention alone
Method in brief: as §1

[16] = tested on: E. coli UFR32 (TEM-1, VEB-1, OXA-10); test: MIC of compounds alone, broth microdilution; format: cell-based; conditions: Escherichia coli; strain UFR32 (E. coli); read-out: MIC compounds of the invention alone
Method in brief: as §1

[17] = tested on: E. coli UFR61O (TEM-1, KPC-2); test: MIC of compounds alone, broth microdilution; format: cell-based; conditions: Escherichia coli; strain UFR61O (E. coli); read-out: MIC compounds of the invention alone
Method in brief: as §1

[18] = tested on: K. pneumoniae UFR24 (TEM-1, SHV-2, SHV-11, OXA-1, OXA-48, OXA-47); test: MIC of compounds alone, broth microdilution; format: cell-based; conditions: Klebsiella pneumoniae; strain UFR24 (K. pneumoniae); read-out: MIC compounds of the invention alone
Method in brief: as §1

[19] = tested on: E. coli 131119 (TEM-1, OXA-48); test: MIC of compounds alone, broth microdilution; format: cell-based; conditions: Escherichia coli; strain 131119 (E. coli); read-out: MIC compounds of the invention alone
Method in brief: as §1

[20] = biological target: T2, SHV-1 (Klebsiella pneumoniae, UniProt P0AD64); test: β-lactamase inhibitory activity, determination of IC50 (nitrocefin hydrolysis); format: biochemical
T2 construct: made in house; host or cells: E. coli
T2 sequence (P0AD64 22-286): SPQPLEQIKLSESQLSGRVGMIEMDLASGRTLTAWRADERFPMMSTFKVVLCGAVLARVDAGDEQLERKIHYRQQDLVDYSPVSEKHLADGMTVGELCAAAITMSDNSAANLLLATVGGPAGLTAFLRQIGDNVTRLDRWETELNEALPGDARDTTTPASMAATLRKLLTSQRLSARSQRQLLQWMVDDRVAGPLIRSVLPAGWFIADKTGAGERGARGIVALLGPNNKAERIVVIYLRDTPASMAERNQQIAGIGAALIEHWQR

[21] = biological target: T3, OXA-15 (Pseudomonas aeruginosa, UniProt Q51574); test: biochemical
T3 construct: made in house; host or cells: E. coli
T3 sequence (Q51574 22-275): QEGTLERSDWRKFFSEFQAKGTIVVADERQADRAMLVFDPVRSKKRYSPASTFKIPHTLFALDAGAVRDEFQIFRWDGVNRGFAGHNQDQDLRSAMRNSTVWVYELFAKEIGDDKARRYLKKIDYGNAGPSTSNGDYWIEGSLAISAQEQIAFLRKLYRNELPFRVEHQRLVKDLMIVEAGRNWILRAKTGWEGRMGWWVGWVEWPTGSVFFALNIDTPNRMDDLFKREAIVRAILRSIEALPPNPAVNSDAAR

[22] = biological target: AmpC (P99) (Enterobacter cloacae, UniProt P05364); test: β-lactamase inhibitory activity, determination of IC50 (nitrocefin hydrolysis)
Sequence of AmpC (P99) (P05364 21-381): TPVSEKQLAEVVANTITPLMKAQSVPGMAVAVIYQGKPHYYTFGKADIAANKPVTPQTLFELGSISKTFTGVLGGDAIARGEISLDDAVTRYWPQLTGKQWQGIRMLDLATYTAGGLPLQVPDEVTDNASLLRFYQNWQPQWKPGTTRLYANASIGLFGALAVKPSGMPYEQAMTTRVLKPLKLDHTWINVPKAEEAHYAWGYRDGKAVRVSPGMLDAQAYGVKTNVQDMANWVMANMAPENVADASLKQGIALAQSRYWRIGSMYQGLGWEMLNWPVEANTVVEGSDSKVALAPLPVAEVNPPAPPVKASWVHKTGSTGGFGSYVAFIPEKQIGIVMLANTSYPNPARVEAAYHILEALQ

[23] = biological target: T4, TEM-1 (Escherichia coli, UniProt P62593); test: as above; format: biochemical
T4 construct: made in house; host or cells: E. coli
T4 sequence (P62593 24-286 limits assumed): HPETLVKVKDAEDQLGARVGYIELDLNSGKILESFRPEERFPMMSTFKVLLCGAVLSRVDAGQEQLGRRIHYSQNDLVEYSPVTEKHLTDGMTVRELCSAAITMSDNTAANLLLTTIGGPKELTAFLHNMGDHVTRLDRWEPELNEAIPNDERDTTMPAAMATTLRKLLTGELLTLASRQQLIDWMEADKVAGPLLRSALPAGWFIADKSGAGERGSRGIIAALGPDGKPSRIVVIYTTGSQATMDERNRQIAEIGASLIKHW

[24] = biological target: T5, CTX-M-15 (Escherichia coli, UniProt Q9EXV5); test: as above; format: biochemical; conditions: class (A); nitrocefin 200 μM, 30 min pre-incubation; read-out: IC50 β-lactamase CTX-M-15
T5 construct: made in house; host or cells: E. coli
T5 sequence (Q9EXV5 entry or part of it): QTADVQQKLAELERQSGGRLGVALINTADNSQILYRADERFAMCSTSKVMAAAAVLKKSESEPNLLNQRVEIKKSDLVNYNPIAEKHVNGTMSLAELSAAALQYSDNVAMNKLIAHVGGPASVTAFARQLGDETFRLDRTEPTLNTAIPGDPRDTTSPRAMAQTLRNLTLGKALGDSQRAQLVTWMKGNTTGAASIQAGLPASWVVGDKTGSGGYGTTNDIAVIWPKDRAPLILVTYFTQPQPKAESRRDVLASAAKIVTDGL

| Compound | pIC50 [1] | MIC [2] [µg/mL] | MIC [3] [µg/mL] | MIC [4] [µg/mL] | MIC [5] [µg/mL] | MIC [6] [µg/mL] | MIC [7] [µg/mL] | MIC [8] [µg/mL] | MIC [9] [µg/mL] | MIC [10] [µg/mL] | MIC [11] [µg/mL] | MIC [12] [µg/mL] | MIC [13] [µg/mL] | MIC [14] [µg/mL] | MIC [15] [µg/mL] | MIC [16] [µg/mL] | MIC [17] [µg/mL] | MIC [18] [µg/mL] | MIC [19] [µg/mL] | pIC50 [20] | further results |
| --- | --- | --- | --- | --- | --- | --- | --- | --- | --- | --- | --- | --- | --- | --- | --- | --- | --- | --- | --- | --- | --- |
| O=C1N2CC=C(c3cnco3)C(C2)N1OS(=O)(=O)[O-].[Na+] (stereo not drawn) [Example 3, Sodium [4-(oxazol-5-yl)-7-oxo-1,6-diazabicyclo[3.2.1]oct-3-en-6-yl]sulfate] | 6.68 | > 32 | 2 | > 32 | > 32 | > 32 | > 32 | > 32 | 2 | > 32 | 16 | 4 | 8 | > 32 | > 32 | > 32 | 16 | > 32 | 4 | 8.16 | pIC50 [21]: 7.48; pIC50 [22]: 6.11; pIC50 [23]: 8.47; pIC50 [24]: 8.55 |
| Cn1cc(C2=CCN3CC2N(OS(=O)(=O)[O-])C3=O)cnc1=O.[Na+] (stereo not drawn) [Example 15, Sodium [4-(N-methyl-2-oxo-pyrimidin-5-yl)-7-oxo-1,6-diazabicyclo[3.2.1]oct-3-en-6-yl] sulfate] | 5.96 | > 32 | 0.5 | > 32 | > 32 | > 32 | > 32 | > 32 | 0.5 | 32 | 16 | 0.5 | 2 | > 32 | > 32 | 1 | 8 | > 32 | 4 | 7.92 | pIC50 [21]: 6.54; pIC50 [22]: 5.70; pIC50 [23]: 8.00; pIC50 [24]: 8.20 |
| Cn1ncc(C2=CCN3CC2N(OS(=O)(=O)[O-])C3=O)cc1=O.[Na+] (stereo not drawn) [Example 19, Sodium [4-(1-methyl-6-oxo-pyridazin-4-yl)-7-oxo-1,6-diazabicyclo[3.2.1]oct-3-en-6-yl] sulfate] | 6.42 | > 32 | 4 | > 32 | > 32 | > 32 | > 32 | > 32 | 4 | > 32 | 32 | 4 | 8 | > 32 | > 32 | > 32 | > 32 | > 32 | 2 | 8.05 | pIC50 [21]: 7.12; pIC50 [22]: 6.03; pIC50 [23]: 8.40; pIC50 [24]: 8.27 |
| O=C1N2CC(c3ncco3)=CC(C2)N1OS(=O)(=O)[O-].[Na+] (stereo not drawn) [Example 25, Sodium [3-(oxazol-2-yl)-7-oxo-1,6-diazabicyclo[3.2.1]oct-3-en-6-yl]sulfate] | 6.51 | > 128 | 4 | 16 | 4 | 2 | 8 | 4 | 2 | 4 | 2 | 8 | 8 | 4 | 4 | 2 | 8 | 4 | 2 | 7.82 | pIC50 [21]: 6.52; pIC50 [22]: 7.19; pIC50 [23]: 8.42; pIC50 [24]: 7.82 |
| NCc1cnc(C2=CC3CN(C2)C(=O)N3OS(=O)(=O)O)s1 (stereo not drawn) [Example 38, [3-[5-(aminomethyl)thiazol-2-yl]-7-oxo-1,6-diazabicyclo[3.2.1]oct-3-en-6-yl] hydrogen sulfate] | 6.20 | > 32 | 1 | 1 | 32 | 8 | > 32 | 32 | 0.5 | 16 | 32 | 0.5 | 4 | > 32 | 8 | 32 | 2 | > 32 | 4 | 8.37 | pIC50 [21]: 6.55; pIC50 [22]: 7.51; pIC50 [23]: 9.15; pIC50 [24]: 9.10 |
| O=C1N2CC(c3ncco3)=C[C@H](C2)N1OS(=O)(=O)[O-].[Na+] [Example 44, Sodium [(5R)-3-(oxazol-2-yl)-7-oxo-1,6-diazabicyclo[3.2.1]oct-3-en-6-yl] sulfate] | 7.06 | > 32 | 1 | 4 | 2 | 1 | 4 | 2 | 1 | 4 | 1 | 4 | 4 | 4 | 1 | 1 | 4 | 2 | 0.5 | 8.22 | pIC50 [21]: 7.17; pIC50 [22]: 8.00; pIC50 [23]: 9.16; pIC50 [24]: 9.21 |
